Marks after values point to notes of the source that are not given here.
Test system: patients with advanced solid tumors
Assay: phase I dose escalation: safety, DLT, MTD, RP2D (CTCAE v. 5)
Format: in vivo
Conditions: for maximum tolerated dose (MTD): oral once daily
Excerpt: Subsequent dosing cohorts were enrolled using a standard 3 + 3 design.
If any patient in any cohort of three patients developed a DLT during cycle 1, an additional three patients were recruited to expand the cohort to up to six evaluable patients. If two or more patients in any expanded cohort developed a DLT, this dose was considered non-tolerated, and dose escalation was discontinued. The MTD was defined as the highest dose level for which no more than one of six patients experienced a DLT.
Patients were continuously evaluated for adverse events throughout the study using the Common Terminology Criteria of Adverse Events (CTCAE v. 5). The patients underwent a clinical history and physical examination, an ECOG PS, a complete blood count (CBCs), chemistry, coagulation studies, urinalysis, a serum pregnancy test (as applicable), a triplicate ECG, an ophthalmology examination, and baseline tumor assessment at screening. During cycle 1, weekly history and physical examination, CBC, chemistry, coagulation parameters, urinalysis, and triplicate ECGs were performed; in subsequent cycles, weekly labs were limited to a CBC. Repeat ophthalmology examinations were performed at cycle 3, day 1, and at the end of treatment. Repeat tumor assessment was performed every 2 cycles (6 weeks) in accordance with RECIST 1.1.

[1] = All Continuous Patients (N=8), G3
[2] = All Continuous Patients (N=8), G4

CC(C)[C@H](N)C(=O)SCC/C=C/[C@@H]1CC(=O)NCc2nc(cs2)C(=O)NC(C)(C)C(=O)N[C@@H](C(C)C)C(=O)O1 [OKI-179, Bocodepsin]
47.1%: TEAE: Fatigue (all patients (n = 34))
2 * patients: DLTs (Cohort 11, 300 mg, Schedule 2 (continuous), 2 patients, grade 2 and grade 4 thrombocytopenia)
2 (25) N (%): TEAE: Platelet count decreased [2]
2 (100) N (%): TEAE: Nausea (continuous, 300 mg (N=2), G1) | TEAE: Platelet count decreased (continuous, 300 mg (N=2), G4)
32.4%: TEAE: anorexia (all patients (n = 34))
450 mg: maximum tolerated dose (MTD) (4:3 intermittent dosing)
33 (97.1%) patients (%): patients with a treatment-related TEAE (all patients (n = 34))
nine: patients with grade > 3 treatment-related TEAEs (all patients (n = 34))
11.8%: grade > 3 treatment-related TEAE: anemia (all patients (n = 34))
200 mg: maximum tolerated dose (MTD) (continuous dosing)
35.3%: TEAE: Anemia (all patients (n = 34))
14 (41.2%) patients (%): patients with serious adverse events (SAEs) (all patients (n = 34), one treatment-related (grade 3 nausea))
four: patients with grade 1 or 2 QT prolongation (whole study)
0 patients: DLTs (Cohort 1, 30 mg, Schedule 1 (4:3), 1 patient) | DLTs (Cohort 2, 60 mg, Schedule 1 (4:3), 2 patients) | DLTs (Cohort 3, 90 mg, Schedule 1 (4:3), 1 patient) | DLTs (Cohort 4, 120 mg, Schedule 1 (4:3), 1 patient) | DLTs (Cohort 5, 150 mg, Schedule 1 (4:3), 1 patient) | DLTs (Cohort 6, 180 mg, Schedule 1 (4:3), 1 patient) | DLTs (Cohort 7, 210 mg, Schedule 1 (4:3), 1 patient) | DLTs (Cohort 8, 270 mg, Schedule 1 (4:3), 3 patients) | DLTs (Cohort 9, 350 mg, Schedule 1 (4:3), 3 patients) | DLTs (Cohort 12, 200 mg, Schedule 2 (continuous), 6 patients)
50%: TEAE: Fatigue (continuous dosing cohort) | TEAE: platelet count decrease (continuous dosing cohort)
38%: TEAE: Diarrhea (continuous dosing cohort) | TEAE: Headache (continuous dosing cohort)
41.2%: TEAE: decreased platelet count (thrombocytopenia) (all patients (n = 34))
2 (33) N (%): TEAE: Constipation (continuous, 200 mg (N=6), G1) | TEAE: Diarrhea (continuous, 200 mg (N=6), G1) | TEAE: Headache (continuous, 200 mg (N=6), G1) | TEAE: Nausea (continuous, 200 mg (N=6), G1) | TEAE: Fatigue (continuous, 200 mg (N=6), G2) | TEAE: Nausea (continuous, 200 mg (N=6), G2)
25%: grade 4 thrombocytopenia events (continuous dosing cohort, two events, in the 300 mg cohort)
75%: TEAE: Constipation (continuous dosing cohort) | TEAE: Nausea (continuous dosing cohort)
Eleven: patients with treatment-related TEAEs leading to dose holding or reduction (all patients (n = 34))
300 mg: recommended phase 2 dose (RP2D) (daily on a 4:3 schedule)
1 (17) N (%): TEAE: Abdominal pain (continuous, 200 mg (N=6), G1) | TEAE: Decreased appetite (continuous, 200 mg (N=6), G1) | TEAE: Dyspepsia (continuous, 200 mg (N=6), G1) | TEAE: ECG QT prolonged (continuous, 200 mg (N=6), G1) | TEAE: Fatigue (continuous, 200 mg (N=6), G1) | TEAE: Pain (continuous, 200 mg (N=6), G1) | TEAE: Platelet count decreased (continuous, 200 mg (N=6), G1) | TEAE: Abdominal pain (continuous, 200 mg (N=6), G2) | TEAE: Anemia (continuous, 200 mg (N=6), G2) | TEAE: Dyspepsia (continuous, 200 mg (N=6), G2) | TEAE: ECG QT prolonged (continuous, 200 mg (N=6), G2) | TEAE: Pain (continuous, 200 mg (N=6), G2) | TEAE: Platelet count decreased (continuous, 200 mg (N=6), G2)
5.9%: grade > 3 treatment-related TEAE: anorexia (all patients (n = 34)) | grade > 3 treatment-related TEAE: decreased platelet count (all patients (n = 34)) | grade > 3 treatment-related TEAE: prolonged QT interval on ECG (all patients (n = 34))
1 (50) N (%): TEAE: Constipation (continuous, 300 mg (N=2), G1) | TEAE: Diarrhea (continuous, 300 mg (N=2), G1) | TEAE: Headache (continuous, 300 mg (N=2), G1) | TEAE: Anemia (continuous, 300 mg (N=2), G2) | TEAE: Decreased appetite (continuous, 300 mg (N=2), G3) | TEAE: Fatigue (continuous, 300 mg (N=2), G3)
18 (52.9%) patients (%): patients with Grade > 3 TEAEs (all patients (n = 34))
0 N (%): TEAE: Headache [1] | TEAE: Nausea [1] | TEAE: Pain [1] | TEAE: Platelet count decreased [1] | TEAE: Abdominal pain [2] | TEAE: Anemia [2] | TEAE: Constipation [2] | TEAE: Decreased appetite [2] | TEAE: Diarrhea [2] | TEAE: Dyspepsia [2] | TEAE: ECG QT prolonged [2] | TEAE: Fatigue [2] | TEAE: Headache [2] | TEAE: Nausea [2] | TEAE: Pain [2] | TEAE: Anemia (continuous, 200 mg (N=6), G1) | TEAE: Decreased appetite (continuous, 200 mg (N=6), G2) | TEAE: Diarrhea (continuous, 200 mg (N=6), G2) | TEAE: Headache (continuous, 200 mg (N=6), G2) | TEAE: Abdominal pain (continuous, 200 mg (N=6), G3) | TEAE: Anemia (continuous, 200 mg (N=6), G3) | TEAE: Constipation (continuous, 200 mg (N=6), G3) | TEAE: Decreased appetite (continuous, 200 mg (N=6), G3) | TEAE: Diarrhea (continuous, 200 mg (N=6), G3) | TEAE: Dyspepsia (continuous, 200 mg (N=6), G3) | TEAE: ECG QT prolonged (continuous, 200 mg (N=6), G3) | TEAE: Fatigue (continuous, 200 mg (N=6), G3) | TEAE: Headache (continuous, 200 mg (N=6), G3) | TEAE: Nausea (continuous, 200 mg (N=6), G3) | TEAE: Pain (continuous, 200 mg (N=6), G3) | TEAE: Platelet count decreased (continuous, 200 mg (N=6), G3) | TEAE: Abdominal pain (continuous, 200 mg (N=6), G4) | TEAE: Anemia (continuous, 200 mg (N=6), G4) | TEAE: Constipation (continuous, 200 mg (N=6), G4) | TEAE: Decreased appetite (continuous, 200 mg (N=6), G4) | TEAE: Diarrhea (continuous, 200 mg (N=6), G4) | TEAE: Dyspepsia (continuous, 200 mg (N=6), G4) | TEAE: ECG QT prolonged (continuous, 200 mg (N=6), G4) | TEAE: Fatigue (continuous, 200 mg (N=6), G4) | TEAE: Headache (continuous, 200 mg (N=6), G4) | TEAE: Nausea (continuous, 200 mg (N=6), G4) | TEAE: Pain (continuous, 200 mg (N=6), G4) | TEAE: Platelet count decreased (continuous, 200 mg (N=6), G4) | TEAE: Abdominal pain (continuous, 300 mg (N=2), G1) | TEAE: Anemia (continuous, 300 mg (N=2), G1) | TEAE: Decreased appetite (continuous, 300 mg (N=2), G1) | TEAE: Dyspepsia (continuous, 300 mg (N=2), G1) | TEAE: ECG QT prolonged (continuous, 300 mg (N=2), G1) | TEAE: Fatigue (continuous, 300 mg (N=2), G1) | TEAE: Pain (continuous, 300 mg (N=2), G1) | TEAE: Platelet count decreased (continuous, 300 mg (N=2), G1) | TEAE: Abdominal pain (continuous, 300 mg (N=2), G2) | TEAE: Constipation (continuous, 300 mg (N=2), G2) | TEAE: Decreased appetite (continuous, 300 mg (N=2), G2) | TEAE: Diarrhea (continuous, 300 mg (N=2), G2) | TEAE: Dyspepsia (continuous, 300 mg (N=2), G2) | TEAE: ECG QT prolonged (continuous, 300 mg (N=2), G2) | TEAE: Fatigue (continuous, 300 mg (N=2), G2) | TEAE: Headache (continuous, 300 mg (N=2), G2) | TEAE: Nausea (continuous, 300 mg (N=2), G2) | TEAE: Pain (continuous, 300 mg (N=2), G2) | TEAE: Platelet count decreased (continuous, 300 mg (N=2), G2) | TEAE: Abdominal pain (continuous, 300 mg (N=2), G3) | TEAE: Anemia (continuous, 300 mg (N=2), G3) | TEAE: Constipation (continuous, 300 mg (N=2), G3) | TEAE: Diarrhea (continuous, 300 mg (N=2), G3) | TEAE: Dyspepsia (continuous, 300 mg (N=2), G3) | TEAE: ECG QT prolonged (continuous, 300 mg (N=2), G3) | TEAE: Headache (continuous, 300 mg (N=2), G3) | TEAE: Nausea (continuous, 300 mg (N=2), G3) | TEAE: Pain (continuous, 300 mg (N=2), G3) | TEAE: Platelet count decreased (continuous, 300 mg (N=2), G3) | TEAE: Abdominal pain (continuous, 300 mg (N=2), G4) | TEAE: Anemia (continuous, 300 mg (N=2), G4) | TEAE: Constipation (continuous, 300 mg (N=2), G4) | TEAE: Decreased appetite (continuous, 300 mg (N=2), G4) | TEAE: Diarrhea (continuous, 300 mg (N=2), G4) | TEAE: Dyspepsia (continuous, 300 mg (N=2), G4) | TEAE: ECG QT prolonged (continuous, 300 mg (N=2), G4) | TEAE: Fatigue (continuous, 300 mg (N=2), G4) | TEAE: Headache (continuous, 300 mg (N=2), G4) | TEAE: Nausea (continuous, 300 mg (N=2), G4) | TEAE: Pain (continuous, 300 mg (N=2), G4)
3 (50) N (%): TEAE: Constipation (continuous, 200 mg (N=6), G2)
70.6%: TEAE: Nausea (all patients (n = 34))
three: patients with grade 3 QT prolongation (whole study)
15: number of grade > 3 treatment-related TEAEs (all patients (n = 34))
